Reference: patent US20230257372A1 (CHONG KUN DANG PHARMACEUTICAL CORP., priority 2020, published 2023)
Like-named read-outs stand apart in the source and are kept apart here.

What was measured:
[1] = target: T1, human recombinant HDAC6 (Homo sapiens, UniProt Q9UBN7); test: HDAC6 enzyme activity inhibition (HDAC Fluorimetric Drug Discovery Kit); type: biochemical
T1 construct: purchased Calbiochem Inc. 382180
T1 sequence (Q9UBN7 1-1215): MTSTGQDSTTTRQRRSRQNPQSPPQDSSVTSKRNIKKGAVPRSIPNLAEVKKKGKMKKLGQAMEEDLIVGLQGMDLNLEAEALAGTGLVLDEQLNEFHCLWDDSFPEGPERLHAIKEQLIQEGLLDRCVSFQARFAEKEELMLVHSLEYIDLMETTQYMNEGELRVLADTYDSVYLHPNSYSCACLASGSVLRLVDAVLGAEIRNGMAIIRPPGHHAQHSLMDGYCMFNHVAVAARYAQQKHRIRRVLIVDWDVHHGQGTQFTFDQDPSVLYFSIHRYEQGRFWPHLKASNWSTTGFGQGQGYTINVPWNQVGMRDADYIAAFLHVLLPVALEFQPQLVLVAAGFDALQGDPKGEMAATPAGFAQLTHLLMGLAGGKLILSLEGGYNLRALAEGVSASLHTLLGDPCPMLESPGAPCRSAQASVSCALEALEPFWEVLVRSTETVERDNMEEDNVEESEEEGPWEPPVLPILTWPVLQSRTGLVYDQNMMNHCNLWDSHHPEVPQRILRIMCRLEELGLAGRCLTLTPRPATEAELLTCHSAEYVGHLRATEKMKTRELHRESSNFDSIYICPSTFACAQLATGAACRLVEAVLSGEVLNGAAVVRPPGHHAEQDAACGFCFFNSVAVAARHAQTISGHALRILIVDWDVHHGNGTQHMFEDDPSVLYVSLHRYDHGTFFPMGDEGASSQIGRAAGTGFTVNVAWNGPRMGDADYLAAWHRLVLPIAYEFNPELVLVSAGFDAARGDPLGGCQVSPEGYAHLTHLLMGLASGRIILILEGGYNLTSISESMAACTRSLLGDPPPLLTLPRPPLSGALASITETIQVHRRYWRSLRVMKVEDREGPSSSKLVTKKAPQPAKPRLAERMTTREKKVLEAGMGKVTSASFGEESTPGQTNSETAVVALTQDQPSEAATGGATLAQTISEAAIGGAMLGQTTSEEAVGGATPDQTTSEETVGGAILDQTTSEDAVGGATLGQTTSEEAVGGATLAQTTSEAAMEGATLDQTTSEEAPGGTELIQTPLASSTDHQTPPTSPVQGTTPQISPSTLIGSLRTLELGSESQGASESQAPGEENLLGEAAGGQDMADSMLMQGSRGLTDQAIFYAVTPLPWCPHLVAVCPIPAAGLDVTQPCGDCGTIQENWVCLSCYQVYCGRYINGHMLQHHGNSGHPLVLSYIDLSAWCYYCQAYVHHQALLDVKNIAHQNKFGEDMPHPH
Summary of the method: (§1)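 Enzyme at 0.3 µg per well was reacted with 10 μM fluorogenic substrate in presence of 5-fold diluted compound, 30° C for 60 min.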

[2] = target: T2, human recombinant HDAC1 (Homo sapiens, UniProt Q13547); test: HDAC1 enzyme activity inhibition (HDAC Fluorimetric Drug Discovery Kit); type: biochemical; settings: read-out: HDAC1
T2 construct: purchased Enzo Life Science, Inc. BML-SE456
T2 sequence (Q13547 whole entry): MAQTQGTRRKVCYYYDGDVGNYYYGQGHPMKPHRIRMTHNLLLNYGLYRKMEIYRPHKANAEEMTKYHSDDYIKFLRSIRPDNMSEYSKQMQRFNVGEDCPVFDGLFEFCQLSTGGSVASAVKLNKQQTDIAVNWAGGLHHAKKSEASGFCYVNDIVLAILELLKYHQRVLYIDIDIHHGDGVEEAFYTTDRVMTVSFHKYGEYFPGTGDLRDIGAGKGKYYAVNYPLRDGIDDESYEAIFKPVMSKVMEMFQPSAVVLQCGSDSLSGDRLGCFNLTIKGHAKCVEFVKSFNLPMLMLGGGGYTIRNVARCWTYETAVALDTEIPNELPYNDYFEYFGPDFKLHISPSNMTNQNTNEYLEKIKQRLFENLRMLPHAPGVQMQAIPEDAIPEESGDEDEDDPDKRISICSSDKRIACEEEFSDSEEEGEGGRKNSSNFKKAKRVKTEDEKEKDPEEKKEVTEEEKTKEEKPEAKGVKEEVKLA
Summary of the method: as §1

[3] = human recombinant HDAC6, same protocol as HDAC1
[4] = human recombinant HDAC1, Fluor de Lys substrate, 30° C. 60 minutes
[5] = human recombinant HDAC6, IC50 calculated with GraphPad Prism
[6] = human recombinant HDAC1, IC50 calculated with GraphPad Prism

Compound | HDAC6 selectivity (fold) ([1]; HDAC6 over HDAC1) | IC50 [1, 3] [nM] | IC50 [2, 4] [nM] | HDAC6 selectivity (fold) ([1]; HDAC1 IC50 / HDAC6 IC50) | IC50 [1, 5] [nM] | IC50 [2, 6] [nM]
CCN1CC(c2cccc(-c3cn(Cc4ccc(-c5nnc(C(F)F)o5)cc4)nn3)c2)C1 [Compound 4508, 2-(difluoromethyl)-5-(4-((4-(3-(1-ethylazetidin-3-yl)phenyl)-1H-1,2,3-triazol-1-yl)methyl)phenyl)-1,3,4-oxadiazole] | 1381 | 36.2 | > 50000 |  |  | 
CC(C)N1CC(c2cccc(-c3cn(Cc4ccc(-c5nnc(C(F)F)o5)cc4F)nn3)c2)C1 [Compound 4461, 2-(difluoromethyl)-5-(3-fluoro-4-((4-(3-(1-isopropylazetidin-3-yl)phenyl)-1H-1,2,3-triazol-1-yl)methyl)phenyl)-1,3,4-oxadiazole] |  |  |  | 759 | 65.8 | > 50000
CN1C[C@@H]2C[C@H]1CN2c1cc(-c2cn(Cc3ccc(-c4nnc(C(F)F)o4)cc3)nn2)ccc1F [Compound 4429, 2-(difluoromethyl)-5-(4-((4-(4-fluoro-3-((1S,4S)-5-methyl-2,5-diazabicyclo[2.2.1]heptan-2-yl)phenyl)-1H-1,2,3-triazol-1-yl)methyl)phenyl)-1,3,4-oxadiazole] |  |  |  | 747 | 66.9 | > 50000
CN1CCC(c2cccc(-c3cn(Cc4ccc(-c5nnc(C(F)F)o5)cc4F)nn3)c2)CC1 [Compound 4290, 2-(difluoromethyl)-5-(3-fluoro-4-((4-(3-(1-methylpiperidin-4-yl)phenyl)-1H-1,2,3-triazol-1-yl)methyl)phenyl)-1,3,4-oxadiazole] |  |  |  | 909 | 55 | > 50000
CC1CCN(Cc2c[nH]c3cc(-c4cn(Cc5ccc(-c6nnc(C(F)F)o6)cc5)nn4)ccc23)CC1 [Compound 4492, 2-(difluoromethyl)-5-(4-((4-(3-((4-methylpiperidin-1-yl)methyl)-1H-indol-6-yl)-1H-1,2,3-triazol-1-yl)methyl)phenyl)-1,3,4-oxadiazole] |  |  |  | 3333 | 15 | > 50000
CN1CCN(c2cc(-c3cn(Cc4ccc(-c5nnc(C(F)F)o5)cc4)nn3)ccc2F)CC1 [Compound 4419, 2-(difluoromethyl)-5-(4-((4-(4-fluoro-3-(4-methylpiperazin-1-yl)phenyl)-1H-1,2,3-triazol-1-yl)methyl)phenyl)-1,3,4-oxadiazole] |  |  |  | 315 | 159 | > 50000
CN1CCc2cc(-c3cn(Cc4ccc(-c5nnc(C(F)F)o5)cn4)nn3)ccc2C1 [Compound 4051, 2-(difluoromethyl)-5-(6-((4-(2-methyl-1,2,3,4-tetrahydroisoquinolin-6-yl)-1H-1,2,3-triazol-1-yl)methyl)pyridin-3-yl)-1,3,4-oxadiazole] |  |  |  | 1623 | 30.8 | > 50000
Fc1cc(-c2nnc(C(F)F)o2)ccc1Cn1cc(-c2cccc(CN3CCC3)c2)nn1 [Compound 4402, 2-(4-((4-(3-(azetidin-1-ylmethyl)phenyl)-1H-1,2,3-triazol-1-yl)methyl)-3-fluorophenyl)-5-(difluoromethyl)-1,3,4-oxadiazole] |  |  |  | 677 | 73.8 | > 50000
FC(F)c1nnc(-c2ccc(Cn3cc(C4(F)COC4)nn3)nc2)o1 [Compound 4280, 2-(difluoromethyl)-5-(6-((4-(3-fluorooxetan-3-yl)-1H-1,2,3-triazol-1-yl)methyl)pyridin-3-yl)-1,3,4-oxadiazole] |  |  |  | 292 | 171 | > 50000
FC(F)c1nnc(-c2ccc(Cn3cc(-c4ccc5[nH]cnc5c4)nn3)nc2)o1 [Compound 3843, 2-(6-((4-(1H-benzo[d]imidazol-5-yl)-1H-1,2,3-triazol-1-yl)methyl)pyridin-3-yl)-5-(difluoromethyl)-1,3,4-oxadiazole] |  |  |  | 5952 | 8.4 | > 50000
CCN1CCN(C(=O)c2cccc(-c3cn(Cc4ccc(-c5nnc(C(F)F)o5)cn4)nn3)c2)CC1 [Compound 4482, (3-(1-((5-(5-(difluoromethyl)-1,3,4-oxadiazol-2-yl)pyridin-2-yl)methyl)-1H-1,2,3-triazol-4-yl)phenyl)(4-ethylpiperazin-1-yl)methanone] |  |  |  | 943 | 53 | > 50000
CCN1CCN(c2cccc(-c3cn(Cc4ccc(-c5nnc(C(F)F)o5)cc4)nn3)c2)CC1 [Compound 4368, 2-(difluoromethyl)-5-(4-((4-(3-(4-ethylpiperazin-1-yl)phenyl)-1H-1,2,3-triazol-1-yl)methyl)phenyl)-1,3,4-oxadiazole] |  |  |  | 1533 | 32.6 | > 50000
Fc1cc(-c2nnc(C(F)F)o2)ccc1Cn1cc(-c2ccc3c(c2)CCN(C2CN(C4CCC4)C2)C3)nn1 [Compound 4394, 2-(4-((4-(2-(1-cyclobutylazetidin-3-yl)-1,2,3,4-tetrahydroisoquinolin-6-yl)-1H-1,2,3-triazol-1-yl)methyl)-3-fluorophenyl)-5-(difluoromethyl)-1,3,4-oxadiazole] |  |  |  | 706 | 70.8 | > 50000

More lines, now with the values ahead:

HDAC6 selectivity (fold) ([1]; HDAC6 over HDAC1) | IC50 [1, 3] [nM] | IC50 [2, 4] [nM] | HDAC6 selectivity (fold) ([1]; HDAC1 IC50 / HDAC6 IC50) | IC50 [1, 5] [nM] | IC50 [2, 6] [nM] | Compound
388 | 129 | > 50000 |  |  |  | C[C@@H]1CN(c2cccc(-c3cn(Cc4ncc(-c5nnc(C(F)F)o5)cc4F)nn3)c2)C[C@H](C)N1 [Compound 18893, 2-(difluoromethyl)-5-(6-((4-(3-((3R,5S)-3,5-dimethylpiperazin-1-yl)phenyl)-1H-1,2,3-triazol-1-yl)methyl)-5-fluoropyridin-3-yl)-1,3,4-oxadiazole]
167 | 299 | > 50000 |  |  |  | CC(C)(C)OC(=O)N1CC(N2CCC(c3cccc(-c4cn(Cc5ncc(-c6nnc(C(F)F)o6)cc5F)nn4)c3)CC2)C1 [Compound 18872, tert-butyl 3-(4-(3-(1-((5-(5-(difluoromethyl)-1,3,4-oxadiazol-2-yl)-3-fluoropyridin-2-yl)methyl)-1H-1,2,3-triazol-4-yl)phenyl)piperidin-1-yl)azetidin-1-carboxylate]
619 | 80.7 | > 50000 |  |  |  | Fc1cc(-c2nnc(C(F)F)o2)ccc1Cn1cc(-c2ccc3c(c2)CN(C2CCOCC2)C3)nn1 [Compound 17458, 2-(difluoromethyl)-5-(3-fluoro-4-((4-(2-(tetrahydro-2H-pyran-4-yl)isoindolin-5-yl)-1H-1,2,3-triazol-1-yl)methyl)phenyl)-1,3,4-oxadiazole]
1315 | 38 | > 50000 |  |  |  | CN(C)Cc1ccc(-c2cn(Cc3ncc(-c4nnc(C(F)F)o4)cc3F)nn2)c(Cl)c1 [Compound 19098, 1-(3-chloro-4-(1-((5-(5-(difluoromethyl)-1,3,4-oxadiazol-2-yl)-3-fluoropyridin-2-yl)methyl)-1H-1,2,3-triazol-4-yl)phenyl)-N,N-dimethylmethanamine]
327 | 153 | > 50000 |  |  |  | FC(F)c1nnc(-c2ccc(Cn3cc(-c4cccc5c4CN(C4CCC4)C5)nn3)cc2)o1 [Compound 4532, 2-(4-((4-(2-cyclobutylisoindolin-4-yl)-1H-1,2,3-triazol-1-yl)methyl)phenyl)-5-(difluoromethyl)-1,3,4-oxadiazole]
3649 | 13.7 | > 50000 |  |  |  | CN1CCN(c2cccc(-c3cn(Cc4ccc(-c5nnc(C(F)F)o5)cn4)nn3)c2F)CC1 [Compound 4569, 2-(difluoromethyl)-5-(6-((4-(2-fluoro-3-(4-methylpiperazin-1-yl)phenyl)-1H-1,2,3-triazol-1-yl)methyl)pyridin-3-yl)-1,3,4-oxadiazole]
